Data: US20130274705A1, “FEEDBACK-BASED DIURETIC OR NATRIURETIC MOLECULE ADMINISTRATION” (MEDTRONIC, INC., priority 2012, published 2013)

Legend:
[1] = test system: anesthetized, mechanically ventilated male dog; test: NICOM study: cardiac data in an anesthetized, mechanically ventilated dog; format: in vivo; conditions: measured by NICOM monitor
Text: A noninvasive cardiac output monitoring (NICOM) monitor was utilized to measure cardiac data from an anesthetized, mechanically ventilated, 54 lb, 42 inch (nose to base of tail) male dog. FIGS. 20-24 depict the cardiac data measured by the NICOM monitor.
The gap in data at 11:20 indicates electrocautery interference when the chest of the dog was opened. FIG. 21 depicts the data in response to sequential fluid boluses. An approximate 20% increase in CO was detected reflecting changes in both SV and HR. […] FIG. 23 depicts the cardiodepressant effect of the ultra-short beta-blocker esmolol given after dobutamine and recalibration. […] FIG. 24 depicts the response to increasing blood pressure with phenylephrine followed by decreasing blood pressure with sodium nitroprusside (SNP). Prior to this intervention, the dog chest had been opened and commercially available flow monitors had been implanted on the pulmonary artery (PA). Baseline PA flow data, which was measured by the implantable monitors, was 2.7 L/min. The PA flow data measured by the NICOM monitor was 2.812 L/min.

[2] = test system: canine model high-rate paced (HRP) to simulate HF; test: Pharmacodynamic study of VD by continuous subcutaneous infusion in high-rate paced canine heart failure model; format: in vivo; conditions: SQ infusion 100 ng/kg·min
Procedure: FIGS. 16 and 17 show the mean right atrial pressure and the mean pulmonary capillary wedge pressure, respectively, for control and experimental groups of a canine model high-rate paced (HRP). A pharmaceutical formulation of VD was prepared in a Tris buffer. 16.0 g glycerol, 6.05 g tris-(hydroxymethyl)-aminomethane (“Tris”), 2.50 g meta cresol were mixed in a 1.00 L volumetric flask. Approximately 900 mL nanopure water was added to the volumetric flask and the mixture was magnetically stirred to reach complete dissolution. 4 normal hydrochloric acid was used to adjust pH to 7.3 at 25° C. Then, the flask was filled to 1 L mark with nanopure water. The pH was rechecked and verified to be 7.3 at 25° C. The pH 7.3 Tris buffer was stored at 2-8° C. until use.
Lyophilized VD peptide (Bachem) was weighted into a glass vial and dissolved into a known volume of the Tris buffer to a concentration between 1 mg/mL and 10 mg/mL. The VD peptide was dissolved by gentle mixing and the solution was allowed to rest for between 20 and 30 minutes. The pH of the solution was checked and adjusted to 7.3 with 0.1 N sodium hydroxide. The solution was filtered through a 0.22 micron sterile filter into a sterile glass vial and stored at 2 to 8° C. until use.
The pharmacodynamic effects of VD delivered by subcutaneous infusion were investigated in a canine model high-rate paced (HRP) to a heart rate of 240 bpm (ventricular pacing) over a period of 10 days to simulate HF. The canines were divided into a control group and an experimental group. The control group received a continuous subcutaneous infusion of the Tris buffer without VD over the course of the 10 day period. The experimental group received continuous subcutaneous infusion of VD dissolved in Tris buffer at a dosing rate of 100 ng/kg·min based upon the body weight of individual canines.
Seven days prior to the beginning of HRP (Day −7), all dogs were instrumented for ventricular pacing with an IPG (implantable pulse generator) including an RA (right atrium) and RV (right ventricle) lead, and a DSI ([…]) device in the femoral artery for arterial blood pressure monitoring. Glomerular filtration rate (GFR) was measured by iohexol clearance on the day before the beginning of HRP (Day −1). On Day 0, high-rate pacing was initiated at a rate of 240 BPM (beats per minute) and maintained continuously over the course of a 10 day period (Days 0-10). After HRP was started on Day 0, urine, blood, and hemodynamic data was collected from conscious animals to serve as a baseline. […]

[3] = test system: Dahl/SS rats; test: Pharmacodynamic study of VD in Dahl/SS rats on 4% salt diet (blood pressure); format: in vivo, rat; conditions: for blood pressure compared with 4% vehicle control group at week 3: week 3, p-value<0.05
Procedure: The pharmacodynamic effects of VD were investigated in a rat model. Forty male Dahl/SS rats were shipped to the animal facilities at PhysioGenix, Inc. (Milwaukee, Wis.). The rats were maintained on a low-salt diet and allowed to acclimate. After acclimation, animals had baseline parameters collected while on the low-salt diet. Baseline tail-cuff blood pressures and echocardiograms were measured. Baseline urine was collected for analysis of protein and albumin. Animals were then randomly assigned to one of 4 groups (10 animals per group):
1. Vehicle Control; low-salt diet, n=10 2. Vehicle Control; 4% salt diet, n=10 3. Vessel dilator, 100 ng/kg/min, 4% salt diet, n=10 4. Vessel dilator, 300 ng/kg/min, 4% salt diet, n=10
Lyophilized VD peptide (Bachem) was reconstituted in a Tris buffer having the same composition as the Tris buffer used in Example 7. The vehicle control groups were infused with a citrate-mannitol-saline buffer (0.66 mg/mL citric acid, 6.43 mg/mL sodium citrate, 40 mg/mL mannitol, 9 mg/mL NaCl). The animals were on a Teklad 7034 (low-salt) diet or Dyets AIN-76A 4% salt diet, as indicated, throughout a 6 week course of the study and had free access to water.
Alzet® minipumps (Durect, Corp.) were surgically implanted on Days 1, 15, and 29 of the study to maintain continuous vehicle or drug dispensing at the desired dose for a total period of 6 weeks. Urine was collected at baseline, 2, 4 and 6 weeks after the initiation of the treatment to assess proteinuria and albuminuria. After six weeks of treatment, the animals were then euthanized.

With `CC(CCc1ccc(O)cc1)NCCc1ccc(O)c(O)c1` (centres unmarked) [dobutamine] the “effect on cardiac output (CO)” value [1] was “marked increase in CO”.

With `COC(=O)CCc1ccc(OCC(O)CNC(C)C)cc1` (centres unmarked) [esmolol] the “effect on cardiac output (CO)” value [1] was “marked decline in CO”.

“vessel dilator (EVVPPQVLSEPNEEAGAALSPLPEVPPWTGEVSPAQR; Vessel dilator; UniProt P01160 56-92, looked up) [VD, Natriuretic peptide of the ANP hormones; lyophilized VD peptide (Bachem) dissolved in Tris buffer]” was tested, and the “increase in right atrial pressure compared with control group” value ([2]; Day 10, p-value<0.05) was “significantly less than for the control group”, the “change in mean right atrial pressure from Day 0 to Day 10” value ([2]; HRP 240 bpm, 10 days) was “increased slightly” and the “difference in pulmonary capillary wedge pressure between control and experimental group on Day 10” value ([2]; alpha 0.05, two-way repeated measures ANOVA) was “does not appear to be statistically significant”. For the same compound, the “extent of increase in pulmonary capillary wedge pressure from Day 0 to Day 10” value ([2]; versus control group) was “smaller than that observed in the control group”, the “blood pressure compared with vehicle control group on 4% salt diet” value ([3]; high-dose VD 300 ng/kg/min SQ infusion) was “attenuated blood pressure” and the “blood pressure compared with 4% vehicle control group at week 3” value ([3]; high-dose VD 300 ng/kg/min) was “statistically significant decrease in blood pressure”. For the same compound, the “decrease in blood pressure compared with 4% vehicle control group at week 5” value ([3]; high-dose VD 300 ng/kg/min) was “not as statistically significant”, the “blood pressure compared with vehicle control group on 4% salt diet” value ([3]; low-dose VD 100 ng/kg/min SQ infusion) was “attenuated blood pressure” and the “blood pressure compared with 4% vehicle control group at week 3” value ([3]; low-dose VD 100 ng/kg/min) was “statistically significant decrease in blood pressure”. For the same compound, the “decrease in blood pressure compared with 4% vehicle control group at week 5” value ([3]; low-dose VD 100 ng/kg/min) was “not as statistically significant”.

With `CNC[C@H](O)c1cccc(O)c1` [Phenylephrine, phenylephrine] the “effect on cardiac output (CO)” value [1] was “reduced CO” and the “effect on heart rate (HR)” value [1] was “reflex slowing of the HR”.
